The text below walks through data of US10865191B2, “Heterocyclic compounds useful as modulators of TNF alpha” (BRISTOL-MYERS SQUIBB COMPANY, priority 2015, dated 2020).

TNFα, sequence (P01375 77-233 limits assumed): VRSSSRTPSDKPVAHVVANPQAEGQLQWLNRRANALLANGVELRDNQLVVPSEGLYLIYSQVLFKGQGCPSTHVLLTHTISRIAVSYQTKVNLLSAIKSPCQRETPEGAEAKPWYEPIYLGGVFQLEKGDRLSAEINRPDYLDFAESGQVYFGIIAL

In this assay the target is TNFα (Homo sapiens, UniProt P01375). The experiment in a line: TNF induced HEK-Blue assay (NF-kB-driven secreted alkaline phosphatase reporter). The note with it: TNFα 0.5 ng/mL, HEK-Blue-CD40L cells, 18 h; read-out: TNF induced HEK-Blue assay IC50 value. In kind it is cell-based. The gist of the method:
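HEK-Blue-CD40L cells (NF-kB-driven SEAP reporter), 20,000/well, added after 30 min pre-incubation of compound (0.004–25 μM final) with TNFα 0.5 ng/mL final at 37 °C; 18 h incubation. SEAP read with QUANTI-Blue at 620 nm; IC50 from 4-parameter logistic fit, normalized to unstimulated and stimulated DMSO controls.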
`Cc1nc2ccc(-c3cnc(C(C)(C)O)nc3)cc2c(N[C@H](C)c2cc(C(O)CO)ccc2F)c1Cl` (mixture of isomers) [Example 397, 1-(3-((R)-1-((3-chloro-6-(2-(2-hydroxypropan-2-yl)pyrimidin-5-yl)-2-methylquinolin-4-yl)amino)ethyl)-4-fluorophenyl)ethane-1,2-diol]: the IC50 is less than 1 µM. As for `CC(C)(O)c1ncc(-c2ccc3ncc(Cl)c(NC(CC(F)(F)F)c4ccccc4)c3c2)cn1` (racemic) [Example 165, 2-(5-(3-chloro-4-((3,3,3-trifluoro-1-phenylpropyl)amino)quinolin-6-yl)pyrimidin-2-yl)propan-2-ol], the figure is less than 1 µM; as for `C[C@@H](Nc1c(Cl)cnc2ccc(-c3cnc(C(C)(C)O)nc3)cc12)c1cc(N2CCOC2=O)ccc1F` [Example 367, (R)-3-(3-(1-((3-chloro-6-(2-(2-hydroxypropan-2-yl)pyrimidin-5-yl)quinolin-4-yl)amino)ethyl)-4-fluorophenyl) oxazolidin-2-one], less than 1 µM. In the case of `COc1ncc(-c2ccc(F)c([C@@H](C)Nc3c(Cl)cnc4ccccc34)c2)cc1C#N` [Example 520, (R)-5-(3-(1-((3-chloroquinolin-4-yl)amino)ethyl)-4-fluorophenyl)-2-methoxynicotinonitrile], the 50% inhibitory concentration (IC50) was less than 1 µM.

As to `C[C@H](Nc1c(Cl)cnc2ccc(-c3cnc(C(C)(C)O)nc3)cc12)[C@H]1CCCN(c2cncnc2)C1` [Example 567, 2-(5-(3-chloro-4-(((S)-1-((S)-1-(pyrimidin-5-yl)piperidin-3-yl)ethyl)amino)quinolin-6-yl)pyrimidin-2-yl)propan-2-ol], the half-maximal inhibitory concentration (IC50) was in the range of 1 to 10 µM. In the case of `Cc1nc2ccc(-c3cnc(N4CCS(=O)(=O)CC4)nc3)cc2c(NC(C)c2ccccc2F)c1Cl` (racemic) [Example 310, 4-(5-(3-chloro-4-((1-(2-fluorophenyl)ethyl)amino)-2-methylquinolin-6-yl)pyrimidin-2-yl)thiomorpholine 1,1-dioxide], the IC50 was less than 1 µM. As for `C[C@@H](Nc1c(Cl)cnc2ccc(-c3cnc(C(C)(C)O)nc3)cc12)c1cccc(N2CCCC2=O)c1` [Example 363, (R)-1-(3-(1-((3-chloro-6-(2-(2-hydroxypropan-2-yl)pyrimidin-5-yl)quinolin-4-yl)amino)ethyl)phenyl)pyrrolidin-2-one], the figure is 1 to 10 µM; as for `C[C@@H](Nc1c(Cl)cnc2ccc(-c3cnc(C(C)(C)O)nc3)cc12)c1cc(N2CCOCC2=O)ccc1F` [Example 369, (R)-4-(3-(1-((3-chloro-6-(2-(2-hydroxypropan-2-yl)pyrimidin-5-yl)quinolin-4-yl)amino)ethyl)-4-fluorophenyl) morpholin-3-one], less than 1 µM. On to `Cc1ccc(C)c(Nc2c(C)c(O)nc3ccc(-c4cnc(C(C)(C)O)nc4)cc23)c1` [Example 181, 4-((2,5-dimethylphenyl)amino)-6-(2-(2-hydroxypropan-2-yl)pyrimidin-5-yl)-3-methylquinolin-2-ol], for which the IC50 was 10 to 25 µM.

Take `C[C@@H](Nc1c(Cl)cnc2ccc(-c3ccc(N4CCO[C@@H](CO)C4)nc3)cc12)c1ccccc1F` [Example 83, ((R)-4-(5-(3-chloro-4-(((R)-1-(2-fluorophenyl)ethyl)amino)quinolin-6-yl)pyridin-2-yl)morpholin-2-yl)methanol]: the IC50 is less than 1 µM. As for `C[C@@H](Nc1c(Cl)cnc2ccc(-c3cnc(C(C)(C)O)nc3)cc12)c1cc(-c2ncccn2)ccc1F` [Example 345, (R)-2-(5-(3-chloro-4-((1-(2-fluoro-5-(pyrimidin-2-yl)phenyl)ethyl)amino)quinolin-6-yl)pyrimidin-2-yl)propan-2-ol], the figure is less than 1 µM; as for `COC(=O)[C@H](CN)N1CCN(c2ncc(-c3ccc4ncc(Cl)c(N[C@H](C)c5ccccc5F)c4c3)cn2)CC1` [Example 99, methyl (S)-3-amino-2-(4-(5-(3-chloro-4-(((R)-1-(2-fluorophenyl)ethyl)amino)quinolin-6-yl)pyrimidin-2-yl)piperazin-1-yl) propanoate], 1 to 10 µM. As for `CC(C)(O)c1ncc(-c2nc3c(N[C@H](c4cc(C(O)CO)ccc4F)C(F)F)c(Cl)cnc3cc2F)cn1` (stereo partly drawn) [Example 488, 1-(3-((R)-1-((3-chloro-7-fluoro-6-(2-(2-hydroxypropan-2-yl)pyrimidin-5-yl)-1,5-naphthyridin-4-yl)amino)-2,2-difluoroethyl)-4-fluorophenyl)ethane-1,2-diol], the figure is less than 1 µM. The same measure for `C[C@@H](Nc1c(Cl)cnc2ccc(-c3cnc(C(C)(C)O)nc3)cc12)c1cc(-c2cncnc2)ccc1F` [Example 340, (R)-2-(5-(3-chloro-4-((1-(2-fluoro-5-(pyrimidin-5-yl)phenyl)ethyl)amino)quinolin-6-yl)pyrimidin-2-yl) propan-2-ol]: less than 1 µM. `C[C@@H](Nc1c(Cl)cnc2ccc(-c3cnc(C(C)(C)O)nc3)cc12)c1cc(C(N)=O)ccc1F` [Example 388, (R)-3-(1-((3-chloro-6-(2-(2-hydroxypropan-2-yl)pyrimidin-5-yl)quinolin-4-yl)amino)ethyl)-4-fluorobenzamide]: the IC50 was less than 1 µM.

`C[C@@H](Nc1c(Cl)cnc2ccc(-c3ccc(CO)cc3)cc12)c1ccccc1F` [Example 220, (R)-(4-(3-chloro-4-((1-(2-fluorophenyl)ethyl)amino)quinolin-6-yl)phenyl)methanol]: the half-maximal inhibitory concentration (IC50) fell in the range of 10 to 25 µM. As for `Cc1ccc(C)c(Nc2c(Cl)c(N)nc3ccc(-c4cnc(NCC(O)CO)nc4)cc23)c1` (racemic) [Example 73, 3-((5-(2-amino-3-chloro-4-((2,5-dimethylphenyl)amino)quinolin-6-yl)pyrimidin-2-yl)amino)propane-1,2-diol], the figure is 1 to 10 µM; as for `C[C@@H](Nc1c(Cl)cnc2ccc(-c3cnc(C(C)(C)O)nc3)cc12)c1cc(-c2cnn(CC(C)(C)O)c2)ccc1F` [Example 349, (R)-1-(4-(3-(1-((3-chloro-6-(2-(2-hydroxypropan-2-yl)pyrimidin-5-yl)quinolin-4-yl)amino)ethyl)-4-fluorophenyl)-1H-pyrazol-1-yl)-2-methylpropan-2-ol], less than 1 µM. As for `C[C@@H](Nc1c(Cl)cnc2ccc(-c3ccc(C4(NS(C)(=O)=O)CCC4)cc3)cc12)c1ccccc1F` [Example 111, (R)—N-(1-(4-(3-chloro-4-((1-(2-fluorophenyl)ethyl)amino)quinolin-6-yl)phenyl)cyclobutyl)methanesulfonamide], the figure is 10 to 25 µM; as for `CC(C)(O)c1ncc(-c2ccc3ncc(Cl)c(NN4CCc5ccccc54)c3c2)cn1` [Example 47, 2-(5-(3-chloro-4-(indolin-1-ylamino)quinolin-6-yl)pyrimidin-2-yl)propan-2-ol], less than 1 µM.
